Drawing on patent US20240343754A1, “7-SUBSTITUTED 7-DEAZAADENINE-CONTAINING 2',3'-CYCLIC DINUCLEOTIDES” (USTAV ORGANICKE CHEMIE A BIOCHEMIE AV CR, V. V. I., priority 2021, published 2024), this text covers EC50 and CC50 for twelve compounds.

Read-outs that look alike come from different tables or passages of the source. Bounds are passed on as bounds.

Data set [1] deals with Peripheral blood mononuclear cells (PBMC). As to the kind of experiment: PBMC assay: induction of cytokines INFα and INFγ. It counts as cell-based. The note with it: Homo sapiens, PBMCs, 16 h incubation, mean from three different PBMC donors.
In the next data set the target is wt hSTING (Homo sapiens, UniProt Q86WV6). Description: Standard 293T reporter cell-based assay (IRF-3 dependent firefly luciferase reporter).
Data set [2] can be described thus: Cytotoxic effect on PBMCs (CellTiter-Glo Luminescent Cell Viability Assay). It counts as cell-based. The note with it: human, 16 h incubation, mean from three different PBMC donors. As to the method: Briefly, buffy coats were obtained from the Institute of Hematology and Blood Transfusion (Prague, Czech Republic). Informed written consent was signed by each volunteer. Isolation of PBMCs was performed on Ficoll density gradient centrifugation (Ficoll Paque Plus, GE Healthcare, USA) in SepMate tubes (SepMate PBMC Isolation Tubes, Stemcell Technologies, Canada). Obtained PBMCs were washed using PBS with 2 mM EDTA, and then seeded onto 96-well U-shape plates at density 500,000 cells per well in RPMI 1640 media with 10% (v/v) heat inactivated FBS. Serially diluted CDNs were added to cells and cells were incubated for 16 h (37° C., 5% CO2). After incubation, medium was collected to determine levels of INFα and INFγ using ProcartaPlex Assays and MAGPIX System (Merck, Germany) according to the manufacturer's instructions. Cytotoxic effect of CDNs on PBMCs was determined using CellTiter-Glo® Luminescent Cell Viability Assay (Promega Corporation, USA) according to manufacturer's instruction.

Setting [3] is: read-out: PBMC assay EC50 INF α.
[4] abbreviates: read-out: PBMC assay EC50 INF γ.
[5] abbreviates: read-out: Standard assay EC50, 293T reporter cells expressing wt hSTING, 7 h incubation, mean of three independent experiments in triplicates, SD <50%.

Chain of wt hSTING (Q86WV6 whole entry H232R, the tested form may be a part): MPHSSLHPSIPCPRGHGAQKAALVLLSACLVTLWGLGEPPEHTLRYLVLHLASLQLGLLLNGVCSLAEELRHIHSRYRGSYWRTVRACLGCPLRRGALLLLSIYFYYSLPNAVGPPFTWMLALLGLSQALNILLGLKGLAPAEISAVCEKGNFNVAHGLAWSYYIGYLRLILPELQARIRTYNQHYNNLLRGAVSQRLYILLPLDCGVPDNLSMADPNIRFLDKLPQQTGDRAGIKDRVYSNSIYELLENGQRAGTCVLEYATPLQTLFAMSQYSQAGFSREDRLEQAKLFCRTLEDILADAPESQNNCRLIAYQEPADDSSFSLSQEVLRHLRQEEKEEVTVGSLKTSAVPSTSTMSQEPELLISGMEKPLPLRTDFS
Description for wt hSTING: Briefly, the day before testing cells were seeded onto 96-well white plates at density 250,000 cells per cm^2 in DMEM High glucose medium supplemented with 10% (v/v) heat inactivated fetal bovine albumin (FBS). The next day medium was removed, and cell were incubated for 7 h (37° C., 5% CO2) with serial dilution of compounds in medium. After incubation, Bright-Glo Luciferase Assay System reagent was added to cells and luminescence readout was performed on SPARK instrument (Tecan, Austria). EC50 values were determined using in software Prism (GraphPad, USA).

For `Nc1nc2c(ncn2[C@@H]2O[C@@H]3COP(=O)(O)O[C@H]4[C@@H](O)[C@H](n5cc(-c6ccc(COc7cccc8ccccc78)cc6)c6c(N)ncnc65)O[C@@H]4COP(=O)(O)O[C@@H]2[C@@H]3O)c(=O)[nH]1` [Compound 1h, 2-amino-9-((5R,7R,8R,12aR,14R,15R,15aS,16R)-14-(4-amino-5-(4-((naphthalen-1-yloxy)methyl)phenyl)-7H-pyrrolo[2,3-d]pyrimidin-7-yl)-2,10,15,16-tetrahydroxy-2,10-dioxidooctahydro-12H-5,8-methanofuro[3,2-l][1,3,6,9,11]pentaoxa[2,10]diphosphacyclotetradecin-7-yl)-1,9-dihydro-6H-purin-6-one], the EC50 in data set [1] (setting [3]) is 1.97 µM; in data set [1] (setting [4]), 1.08 µM; at wt hSTING (setting [5]), 2.58 µM. In data set [2], this compound yielded a half-maximal cytotoxic concentration (CC50) at 16 h of over 200 µM.
On to `C#Cc1cn([C@@H]2O[C@@H]3COP(=O)(O)O[C@@H]4[C@H](O)[C@@H](OCP(=O)(O)O[C@H]3[C@H]2O)O[C@H]4n2cnc3c(=O)[nH]c(N)nc32)c2ncnc(N)c12` [Compound 53, 2-amino-9-((5R,7R,8R,12aR,14R,15R,15aS,16S)-14-(4-amino-5-ethynyl-7H-pyrrolo[2,3-d]pyrimidin-7-yl)-2,10,15,16-tetrahydroxy-2,10-dioxidooctahydro-5,8-methanofuro[3,2-l][1,3,6,8,11]pentaoxa[2,10]diphosphacyclotetradecin-7-yl)-1,9-dihydro-6H-purin-6-one, reference compound], for which the EC50 on wt hSTING was 109 µM.
On to `Nc1nc2c(ncn2[C@@H]2O[C@@H]3COP(=O)(O)O[C@H]4[C@@H](O)[C@H](n5cc(-c6cc7ccccc7s6)c6c(N)ncnc65)O[C@@H]4COP(=O)(O)O[C@@H]2[C@@H]3O)c(=O)[nH]1` [Compound 1l, 2-amino-9-((5R,7R,8R,12aR,14R,15R,15aS,16R)-14-(4-amino-5-(benzo[b]thiophen-2-yl)-7H-pyrrolo[2,3-d]pyrimidin-7-yl)-2,10,15,16-tetrahydroxy-2,10-dioxidooctahydro-12H-5,8-methanofuro[3,2-l][1,3,6,9,11]pentaoxa[2,10]diphosphacyclotetradecin-7-yl)-1,9-dihydro-6H-purin-6-one], for which the EC50 in data set [1] (setting [3]) was 47.6 µM; in data set [1] (setting [4]), 47.5 µM; at wt hSTING (setting [5]) it was 8.69 µM. In data set [2], this compound showed a 50% cytotoxic concentration (CC50) at 16 h of over 200 µM.
As for `Nc1nc2c(ncn2[C@@H]2O[C@@H]3COP(=O)(O)O[C@H]4[C@@H](O)[C@H](n5cc(-c6ccc7ccccc7c6)c6c(N)ncnc65)O[C@@H]4COP(=O)(O)O[C@@H]2[C@@H]3O)c(=O)[nH]1` [Compound 1c, 2-amino-9-((5R,7R,8R,12aR,14R,15R,15aS,16R)-14-(4-amino-5-(naphthalen-2-yl)-7H-pyrrolo[2,3-d]pyrimidin-7-yl)-2,10,15,16-tetrahydroxy-2,10-dioxidooctahydro-12H-5,8-methanofuro[3,2-l][1,3,6,9,11]pentaoxa[2,10]diphosphacyclotetradecin-7-yl)-1,9-dihydro-6H-purin-6-one], the EC50 on wt hSTING (setting [5]) was determined as 7.63 µM. In addition, in data set [2], the cytotoxic concentration (CC50) at 16 h was over 200 µM.
`Nc1nc2c(ncn2[C@@H]2O[C@@H]3COP(=O)(O)O[C@H]4[C@@H](O)[C@H](n5cc(-c6ccco6)c6c(N)ncnc65)O[C@@H]4COP(=O)(O)O[C@@H]2[C@@H]3O)c(=O)[nH]1` [Compound 1i, 2-amino-9-((5R,7R,8R,12aR,14R,15R,15aS,16R)-14-(4-amino-5-(furan-2-yl)-7H-pyrrolo[2,3-d]pyrimidin-7-yl)-2,10,15,16-tetrahydroxy-2,10-dioxidooctahydro-12H-5,8-methanofuro[3,2-l][1,3,6,9,11]pentaoxa[2,10]diphosphacyclotetradecin-7-yl)-1,9-dihydro-6H-purin-6-one]: the 50% effective concentration (EC50) in data set [1] (setting [3]) amounted to 2.8 µM; in data set [1] (setting [4]), 2.24 µM. This compound also returned a CC50 at 16 h in data set [2] of over 200 µM.
As for `Nc1nc2c(ncn2[C@@H]2O[C@@H]3COP(=O)(O)O[C@H]4[C@@H](O)[C@H](n5cc(-c6cc7ccccc7c7ccccc67)c6c(N)ncnc65)O[C@@H]4COP(=O)(O)O[C@@H]2[C@@H]3O)c(=O)[nH]1` [Compound 1e, 2-amino-9-((5R,7R,8R,12aR,14R,15R,15aS,16R)-14-(4-amino-5-(phenanthren-9-yl)-7H-pyrrolo[2,3-d]pyrimidin-7-yl)-2,10,15,16-tetrahydroxy-2,10-dioxidooctahydro-12H-5,8-methanofuro[3,2-l][1,3,6,9,11]pentaoxa[2,10]diphosphacyclotetradecin-7-yl)-1,9-dihydro-6H-purin-6-one], the EC50 on wt hSTING (setting [5]) turned out to be 65.5 µM. Besides, the CC50 at 16 h in data set [2] is over 200 µM.
Consider `Cc1cn([C@@H]2O[C@@H]3COP(=O)(O)O[C@@H]4[C@H](O)[C@@H](COP(=O)(O)O[C@H]3[C@H]2O)O[C@H]4n2cnc3c(=O)[nH]c(N)nc32)c2ncnc(N)c12` [Compound 1a, 2-amino-9-((5R,7R,8R,12aR,14R,15R,15aS,16R)-14-(4-amino-5-methyl-7H-pyrrolo[2,3-d]pyrimidin-7-yl)-2,10,15,16-tetrahydroxy-2,10-dioxidooctahydro-12H-5,8-methanofuro[3,2-l][1,3,6,9,11]pentaoxa[2,10]diphosphacyclotetradecin-7-yl)-1,9-dihydro-6H-purin-6-one], for which the figures for the EC50 in data set [1] (setting [3]) and in data set [1] (setting [4]) were 30.6 µM and 7.8 µM, respectively. Also, the CC50 at 16 h in data set [2] was over 200 µM.
In the case of `Nc1nc2c(ncn2[C@@H]2O[C@@H]3COP(=O)(O)O[C@H]4[C@@H](O)[C@H](n5cc(-c6cccc7c6oc6ccccc67)c6c(N)ncnc65)O[C@@H]4COP(=O)(O)O[C@@H]2[C@@H]3O)c(=O)[nH]1` [Compound 1m, 2-amino-9-((5R,7R,8R,12aR,14R,15R,15aS,16R)-14-(4-amino-5-(dibenzo[b,d]furan-4-yl)-7H-pyrrolo[2,3-d]pyrimidin-7-yl)-2,10,15,16-tetrahydroxy-2,10-dioxidooctahydro-12H-5,8-methanofuro[3,2-l][1,3,6,9,11]pentaoxa[2,10]diphosphacyclotetradecin-7-yl)-1,9-dihydro-6H-purin-6-one], the EC50 at wt hSTING (setting [5]) is 19.1 µM. The compound also yielded a CC50 at 16 h in data set [2] of over 200 µM.
`Nc1nc2c(ncn2[C@@H]2O[C@@H]3COP(=O)(O)O[C@H]4[C@@H](O)[C@H](n5cc(-c6ccccc6)c6c(N)ncnc65)O[C@@H]4COP(=O)(O)O[C@@H]2[C@@H]3O)c(=O)[nH]1` [Compound 1b, 2-amino-9-((5R,7R,8R,12aR,14R,15R,15aS,16R)-14-(4-amino-5-phenyl-7H-pyrrolo[2,3-d]pyrimidin-7-yl)-2,10,15,16-tetrahydroxy-2,10-dioxidooctahydro-12H-5,8-methanofuro[3,2-l][1,3,6,9,11]pentaoxa[2,10]diphosphacyclotetradecin-7-yl)-1,9-dihydro-6H-purin-6-one]: the EC50 at wt hSTING (setting [5]) is 40.7 µM. The compound also gave a CC50 at 16 h in data set [2] of over 200 µM.
For `Nc1nc2c(ncn2[C@@H]2O[C@@H]3COP(=O)(O)O[C@H]4[C@@H](O)[C@H](n5cc(-c6cccc7ccccc67)c6c(N)ncnc65)O[C@@H]4COP(=O)(O)O[C@@H]2[C@@H]3O)c(=O)[nH]1` [Compound 1d, 2-amino-9-((5R,7R,8R,12aR,14R,15R,15aS,16R)-14-(4-amino-5-(naphthalen-1-yl)-7H-pyrrolo[2,3-d]pyrimidin-7-yl)-2,10,15,16-tetrahydroxy-2,10-dioxidooctahydro-12H-5,8-methanofuro[3,2-l][1,3,6,9,11]pentaoxa[2,10]diphosphacyclotetradecin-7-yl)-1,9-dihydro-6H-purin-6-one] the same measures were 42.5 µM and over 200 µM.
On to `Nc1nc2c(ncn2[C@@H]2O[C@@H]3COP(=O)(O)O[C@H]4[C@@H](O)[C@H](n5ccc6c(N)ncnc65)O[C@@H]4COP(=O)(O)O[C@@H]2[C@@H]3O)c(=O)[nH]1` [Compound 1n, 2-amino-9-((5R,7R,8R,12aR,14R,15R,15aS,16R)-14-(4-amino-7H-pyrrolo[2,3-d]pyrimidin-7-yl)-2,10,15,16-tetrahydroxy-2,10-dioxidooctahydro-12H-5,8-methanofuro[3,2-l][1,3,6,9,11]pentaoxa[2,10]diphosphacyclotetradecin-7-yl)-1,9-dihydro-6H-urin-6-one, reference compound], for which the concentration for a half-maximal effect (EC50) came to 54.5 µM in data set [1] (setting [3]) and 67.6 µM in data set [1] (setting [4]). The CC50 at 16 h in data set [2] is over 200 µM.
The like results for `Nc1nc2c(ncn2[C@@H]2O[C@@H]3COP(=O)(O)O[C@H]4[C@@H](O)[C@H](n5cc(-c6cccs6)c6c(N)ncnc65)O[C@@H]4COP(=O)(O)O[C@@H]2[C@@H]3O)c(=O)[nH]1` [Compound 1j, 2-amino-9-((5R,7R,8R,12aR,14R,15R,15aS,16R)-14-(4-amino-5-(thiophen-2-yl)-7H-pyrrolo[2,3-d]pyrimidin-7-yl)-2,10,15,16-tetrahydroxy-2,10-dioxidooctahydro-12H-5,8-methanofuro[3,2-l][1,3,6,9,11]pentaoxa[2,10]diphosphacyclotetradecin-7-yl)-1,9-dihydro-6H-purin-6-one] were, in that order, 2.88 µM, 2.6 µM and over 200 µM.
